US10231952B2, “Use of arginine vasopressin receptor antagonists for the treatment of prostate cancer” (UNIVERSITY OF MIAMI, priority 2014, dated 2019)
Entries after “also recorded” stand apart in the source; their conditions may differ.

Key:
[1] = system: RWPE1 cells; experiment: AVP effect on normal prostate epithelial cell proliferation; assay type: cell-based, human
Description: (§1) FIG. 9A-9D. […] (A) 22Rv1, (B) CWR-R1, (C) PC3, or (D) RWPE-1 cells were plated at 10,000 cells/well in 24 well dishes and then treated with vehicle or arginine vasopressin (AVP) at the indicated concentrations the following day. Media were changed every day. Cells were harvested six days post treatment. Data represent four experiments performed in triplicate and are plotted as fold (treatment/vehicle)±SEM. Significance was determined using a Student's t-test comparing to vehicle controls (**, p<0.01).
(§2) The effect of arginine vasopressin on the proliferation of a castration-resistant prostate cancer cell line (i.e., 22Rv1) was evaluated. Briefly, 22RV1 cells were treated with 1 nM, 10 nM or 1 μM arginine vasopressin (AVP) for six days followed by live cell counting.

[2] = system: ERK phosphorylation; experiment: Total and phosphoERK after AVP stimulation of 22Rv1 with AVPR1a antagonist pretreatment (FIG. 18); assay type: cell-based, human; details: 10 nM AVP; for block of AVP-stimulated phosphoERK: antagonist pretreatment
Description: Total and phosphoERK levels were assessed following stimulation of 22Rv1 with 10 nM AVP for 25 minutes and pretreatment with AVPR1a antagonist (or vehicle control).

[3] = system: 22Rv1, CWR-R1, PC3 cells; experiment: AVP stimulation of castration resistant prostate cancer cell proliferation (FIG. 9); assay type: cell-based, human; details: 1 nM AVP; six days
Description: as §1

[4] = system: 22Rv1 cells; experiment: AVP treatment of 22Rv1 cells, live cell counting (Example 9); assay type: cell-based, human; details: 1 nM, 10 nM or 1 μM AVP, six days
Description: as §2

[5] = system: ERK1/2 phosphorylation; experiment: Phospho-ERK1/2 immunoblot, AVP plus/minus Relcovaptan (FIG. 10); assay type: cell-based, human; details: 22Rv1 or CWR-R1, 25 min
Text: FIG. 10. […] Lysates were immunoblotted for phospho-ERK1/2 and total ERK1/2.

[6] = system: AVP type V1a and V2 receptors; details: cited from earlier work
[7] = system: 22Rv1, VCaP and RWPE1 cells; experiment: Relcovaptan on prostate cancer cell growth / anchorage independent growth (Example 10); assay type: cell-based, human
Description: The effect of an AVPR1a antagonist on the anchorage independent growth of a castration-resistant prostate cancer cell line (i.e., 22Rv1) was evaluated.

[8] = system: VCaP xenografts; experiment: Castration resistant VCaP xenografts in SCID mice, oral Relcovaptan; assay type: in vivo; details: 50 mg/kg daily oral gavage, 14 days
Description: Subcutaneous VCaP xenografts (bilateral) were established in SCID mice. Mice were castrated when tumors reached 250-300 mm^3. […] Circulating prostate specific antigen (PSA) was measured by ELISA in mice prior to tumor xenografting (baseline), at the time of castration (pre-treatment) and at the time of sacrifice (post-treatment).

[9] = system: CWR-R1 cells; experiment: SR49059 treatment, cell number and trypan blue cell death, CWR-R1; assay type: cell-based, human; details: low nanomolar concentrations, five days
Description: (§3) FIGS. 7A-7I. Pharmacologic blockade of AVPR1a decreases human prostate cancer cell but not normal prostate epithelial cell proliferation and selectively kills human prostate cancer cells. (A) 22Rv1, (B) CWR-R1, (C) PC3, and (D) RWPE-1 cells were treated with vehicle or SR49059 at the indicated concentrations and harvested five days post treatment. A representative experiment (of four) was performed in triplicate and data are plotted as cell number (thousands)±SD. Significance was determined using a Student's t-test comparing to vehicle controls (**, p<0.01; ***, p<0.001). (E) 22Rv1, (F) CWR-R1, (G) PC3 or (H) RWPE-1 cells were plated and grown as described above. Adherent and floating cells were harvested and cells that stained with trypan blue or that excluded stain were counted. A representative experiment (of four) was performed in triplicate. Significance was determined using a Student's t-test comparing to vehicle controls (**, p<0.01; ***, p<0.001). (I) Lysates from cells in (A)-(D) were immunoblotted with antibodies that recognize cleaved PARP and actin.

[10] = system: PC3 cells; experiment: SR49059 treatment, cell number and trypan blue cell death, PC3; assay type: cell-based, human; details: low nanomolar concentrations, five days
Description: as §3

[11] = system: 22Rv1 xenografts; experiment: Pilot 22Rv1 xenograft in castrated nude mice, Relcovaptan IP; assay type: in vivo; details: 2.5 mg/kg IP, 5 times per week
Description: FIG. 8. […] 22RV1 cells (2×106) resuspended in BD Matrigel were injected into both hind flanks of castrated nude mice (n=8). […] Top graph, once palpable, tumor size was measured five days per week. Significance was determined using a Student's t-test comparing to vehicle controls (* p<0.05). Lower graph, mice were weighed five days per week.

[12] = system: RWPE1 cells; experiment: SR49059 treatment, cell number and trypan blue cell death, RWPE-1 normal prostate epithelial cells; assay type: cell-based, human
Description: as §3

[13] = system: LNCaP cells; experiment: Relcovaptan treatment of androgen dependent LNCaP cells (data not shown); assay type: cell-based, human
[14] = system: 22Rv1 cells; experiment: SR49059 treatment, cell number and trypan blue cell death, 22Rv1; assay type: cell-based, human; details: low nanomolar concentrations, five days
Description: as §3

[15] = system: cleaved PARP; experiment: Immunoblot for cleaved PARP after Relcovaptan treatment; assay type: cell-based, human
Description: as §3

[16] = system: PC3 cells; experiment: shAVPR1a depletion, growth curves and trypan blue cell death, PC3; assay type: cell-based, human; details: PC3 stably expressing shAVPR1a vs shGFP
Text: (§4) FIGS. 3A-3D. Depletion of AVPR1a decreases aggressive prostate cancer cell proliferation. […] Live cells (trypan blue exclusion) were counted at the indicated times (hr). Significant differences (p<0.05) in proliferation between shGFP and shAVPR1a-transduced cells occurred by 48-72 hr in CRPC (A-C) but not in normal prostate epithelial cells, RWPE-1 (D). Lower panels quantify AVPR1a mRNA depletion by shRNA in each cell line.
(§5) FIGS. 4A-4E. Depletion of AVPR1a promotes death of aggressive prostate cancer cells. (A) 22Rv1, (B) CWR-R1, (C) PC3 or (D) RWPE-1 cells stably expressing either plk0.1-shGFP or -shAVPR1a were plated and grown as in FIG. 3. Adherent and floating cells were harvested and cells that stained with trypan blue or that excluded stain were counted. Data represent three independent experiments performed in triplicate. Significance was determined using a Student's t-test comparing to shGFP controls (***, p<0.001). (E) Cell lysates were immunoblotted with antibodies that recognize cleaved PARP, cyclin A, and actin.

[17] = system: 22Rv1, CWR-R1 or PC3 cells; experiment: Soft agar anchorage independent growth after AVPR1a depletion; assay type: cell-based, human
Description: FIG. 6. AVPR1a is necessary for anchorage independent growth of human prostate cancer cells. The growth in soft agar of 22Rv1, CWR-R1 or PC3 cells stably expressing the indicated shRNA vectors was assessed. Average colony number per plate±SEM is plotted. Data represent two independent experiments performed in triplicate. Significance was determined using a Student's t-test comparing to shGFP controls (***, p<0.001).
(§6) This finding is significant as AR splice variants are a proposed mechanism of resistance to drugs that target full length AR including the newer agents, abiraterone and enzalutamide (6,7). Thus, targeting AVPR1a may be a strategy to overcome therapeutic resistance to these next generation drugs.
Next, PC3 and 22RV1 cells (CRPC cell lines) in which AVPR1a was depleted (or control shGFP) were cultured in soft agar for three weeks to assess anchorage independent growth (anoikis resistance).

[18] = system: CRPC cells (PC3, 22RV1, LNCaP-abl, C4-2, CWR-R1); experiment: shAVPR1a depletion, live cell counting, CRPC cells (Example 8); assay type: cell-based, human
Text: (§7) (● shGFP served as a control, SEQ ID NO: 5-[…] A summary of the human prostate cell lines used is provided below in Table 1:
(§8) Data represent three independent experiments performed in triplicate for all cell lines except C4-2, which was done one time in triplicate. […] A second distinct AVPR1a shRNA produced similar results (data not shown).

[19] = system: androgen dependent cells, LNCaP, VCaP and non-tumorigenic prostate epithelial RWPE1 cells; experiment: shAVPR1a depletion, live cell counting, androgen dependent and normal cells (Example 8); assay type: cell-based, human
Text: as §7, §8

[20] = system: cleaved PARP, Cyclin A, p-RB; experiment: Immunoblot of apoptosis and G1/S cell-cycle markers after AVPR1a depletion; assay type: cell-based, human
Description: as §5, §6
Next, Western-blot analysis was performed in PC3, 22Rv1 and LNCaP Abl (CRPC) and RWPE1 (non-tumorigenic prostate epithelial cells) to examine G1/S cell-cycle markers: Cyclin A, p-RB or P27.

[21] = system: CWR-R1 cells; experiment: shAVPR1a depletion, growth curves and trypan blue cell death, CWR-R1; assay type: cell-based, human; details: CWR-R1 stably expressing shAVPR1a vs shGFP
Text: as §4, §5

[22] = system: full length AR and AR splice variants; experiment: Immunoblot of AR after AVPR1a depletion in 22Rv1; assay type: cell-based, human
Text: FIG. 5. AVPR1a knock down results in down-regulation of androgen receptor (AR) and AR splice variant expression in human prostate cancer cells. […] ARdeltaLBD refers to C-terminally truncated AR splice variants such as AR3.
as §6

[23] = system: RWPE1 cells; experiment: shAVPR1a depletion, growth curves and trypan blue cell death, RWPE1; assay type: cell-based, human; details: RWPE1 stably expressing shAVPR1a vs shGFP
Text: as §4, §5

[24] = system: 22Rv1 cells; experiment: shAVPR1a depletion, growth curves and trypan blue cell death, 22Rv1; assay type: cell-based, human; details: 22Rv1 stably expressing shAVPR1a vs shGFP
Text: as §4, §5

NC(=O)CC[C@@H]1NC(=O)[C@H](Cc2ccccc2)NC(=O)[C@H](Cc2ccc(O)cc2)NC(=O)[C@@H](N)CSSC[C@@H](C(=O)N2CCC[C@H]2C(=O)N[C@@H](CCCN=C(N)N)C(=O)NCC(N)=O)NC(=O)[C@H](CC(N)=O)NC1=O [AVP, arginine vasopressin]
growth of normal RWPE1 cells ([1]; 1 nM AVP, six days): did not stimulate growth | RWPE1 cell proliferation ([1]; Example 9, data not shown): did not stimulate RWPE1 cell proliferation | proliferation of RWPE-1 ([1]; higher AVP doses): Decreased proliferation | phosphoERK levels ([2]; 25 minutes): increased phosphoERK levels | PC cell proliferation [3]: increased PC cell proliferation; also recorded: stimulates castration resistant prostate cancer cell proliferation | CRPC proliferation [4]: stimulated CRPC proliferation | ERK 1/2 phosphorylation (activation) ([5]; 1 nM AVP): activated ERK 1/2; also recorded: stimulates ERK1/2 phosphorylation

Cc1nc2c([nH]1)-c1ccccc1N(C(=O)c1ccc(NC(=O)c3ccccc3-c3ccccc3)cc1)CC2 [Conivaptan]
AVP receptor blockade / selectivity [6]: non-selectively blocks both AVP type V1a and V2 receptors

COc1ccc(S(=O)(=O)N2c3ccc(Cl)cc3[C@](O)(c3ccccc3Cl)[C@@H]2C(=O)N2CCC[C@H]2C(N)=O)cc1OC [Relcovaptan]
anchorage independent growth ([7]; 10 μM or 25 μM, six days, FIG. 17): inhibits prostate cancer cell anchorage independent growth | prostate cancer cell proliferation ([7]; FIG. 16): inhibits prostate cancer cell proliferation | body weight vs controls [8]: no loss of weight | growth of castration resistant VCaP xenografts ([8]; started seven days after castration): significantly slowed the growth; also recorded: slows growth of VCaP tumors | circulating PSA levels ([8]; ELISA): stabilization of PSA levels | cell death [9]: promoted CRPC cell death | proliferation [9]: inhibited proliferation | block of AVP-stimulated phosphoERK [2]: blocks ERK signaling | block of AVP-stimulated phosphoERK ([2]; listed as relcovaptan): blocked | cell death [10]: promotes cell death; also recorded: promoted CRPC cell death | proliferation [10]: inhibited proliferation | adverse effects / toxicity [11]: no adverse effects; also recorded: lack of toxicity | tumor growth ([11]; castrated nude mice): significantly decreased tumor growth at early time points; also recorded: decreases CRPC in vivo growth at early time points | cell proliferation ([12]; 1-10 nM): no effect | cell survival ([12]; 1-10 nM): no effect | cell death ([12]; doses as high as 10 μM, data not shown): did not promote RWPE1 cell death | inhibition of AVP-stimulated ERK phosphorylation ([5]; 1 nM AVP plus 1 nM Relcovaptan): inhibited this phosphorylation of ERK | cell death [13]: approx. 20% | growth [13]: inhibited growth inhibition | cell death [14]: promoted CRPC cell death | proliferation [14]: inhibited proliferation | cleavage of PARP ([15]; PC cells): cleavage of PARP | cleavage of PARP ([15]; normal prostate cells): not normal prostate cells

shAVPR1a: selective shRNA to AVPR1a, SEQ ID NO: 2 (hairpin printed as SEQ ID NO: 4 in b155) (GGTATGTGGAAGGACTCGCCTAAATCTTC)
cell death [16]: increased cell death | cell proliferation [16]: decreased cell proliferation | anchorage independent growth ([17]; PC3 and 22RV1, soft agar, three weeks, Example 8): significantly reduced anchorage independent growth | anchorage independent growth in soft agar ([17]; three PC cell lines (22Rv1, CWR-R1, PC3)): inhibition of anchorage independent growth in soft agar | proliferation of CRPC cells [18]: greatly decreased proliferation | androgen dependent and normal prostate epithelial cell proliferation [19]: less effect | PARP cleavage ([20]; AVPR1a-depleted PC cells): observed | cyclin A ([20]; CRPC lines PC3, 22Rv1, LNCaP Abl, Example 8): decreased cyclin A | phosphorylation of the retinoblastoma protein ([20]; PC3 and 22Rv1, Example 8): decreased phosphorylation of the retinoblastoma protein | Cyclin A levels (G1 to S progression) ([20]; PC cells, Example 1): decreased levels of Cyclin A | phosphorylation of the retinoblastoma protein ([20]; RWPE1, Example 8): not RWPE1 cells | PARP cleavage ([20]; RWPE1 cells): not in RWPE1 cells | cell death [21]: increased cell death | cell proliferation [21]: decreased cell proliferation | levels of full length AR and AR splice variants [22]: decreased levels of full length AR and AR splice variants | cell death [23]: not the normal human prostate epithelial RWPE1 cells | cell death [24]: increased cell death | cell proliferation [24]: decreased cell proliferation
